Tests used:
A549 cells = experiment: cells; conditions: Homo sapiens, A549, 72 h, read-out: GI50 ± SD
[1] = biological target: T1, TOP1-DNA covalent cleavage complexes (TOP1cc) (Homo sapiens, UniProt P11387); experiment: Immunocomplex of enzyme to DNA; conditions: HCT116 cells; for Induction of cellular TOP1cc: 1 h, CPT 25 and 50 μM, 12 at 25, 50 and 100 μM
T1 sequence (P11387 2-765 limits assumed): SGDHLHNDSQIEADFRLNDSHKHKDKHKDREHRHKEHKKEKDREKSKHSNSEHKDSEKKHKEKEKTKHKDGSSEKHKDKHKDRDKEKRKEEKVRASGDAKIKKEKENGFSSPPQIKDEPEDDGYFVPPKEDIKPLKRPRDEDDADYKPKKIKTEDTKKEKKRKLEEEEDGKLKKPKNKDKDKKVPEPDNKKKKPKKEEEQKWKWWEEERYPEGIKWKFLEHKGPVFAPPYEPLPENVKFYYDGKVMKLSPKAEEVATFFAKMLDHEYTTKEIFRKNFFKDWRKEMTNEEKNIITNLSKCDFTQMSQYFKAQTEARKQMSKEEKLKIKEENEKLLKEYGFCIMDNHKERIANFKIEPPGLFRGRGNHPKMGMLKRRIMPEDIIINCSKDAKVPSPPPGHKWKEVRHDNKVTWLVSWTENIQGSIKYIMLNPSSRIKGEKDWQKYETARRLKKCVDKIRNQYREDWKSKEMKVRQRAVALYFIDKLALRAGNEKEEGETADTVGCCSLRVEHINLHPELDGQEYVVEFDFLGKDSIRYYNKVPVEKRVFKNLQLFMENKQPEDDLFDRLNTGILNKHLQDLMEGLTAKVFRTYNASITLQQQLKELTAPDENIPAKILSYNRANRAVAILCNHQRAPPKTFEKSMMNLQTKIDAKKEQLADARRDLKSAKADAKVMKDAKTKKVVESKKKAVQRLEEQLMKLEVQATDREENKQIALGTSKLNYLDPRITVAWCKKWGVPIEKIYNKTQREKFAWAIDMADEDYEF

[2] = test system: human breast cancer MCF-7 xenograft; experiment: In vivo antitumor efficiency, MCF-7 xenograft; conditions: MCF-7 xenograft nude mice; 5, 10, 20 mg/kg ip daily
[3] = test system: human colon cancer HCT116 xenograft; experiment: In vivo antitumor efficiency, HCT116 xenograft; conditions: HCT116 xenograft nude mice; 5, 10, 20 mg/kg ip daily
γH2AX foci = γH2AX foci immunofluorescence in HCT116 cells; assay type: cell-based, human; conditions: 1 μM, 3 h
HCT116 cells = conditions: 0.5, 1 and 2 μM, 24 h
Kunming male mice = experiment: Acute toxicity in vivo; conditions: n = 6

## CC[C@@]1(O)C(=O)OCc2c1cc1n(c2=O)Cc2cc3ccccc3nc2-1 [CPT, camptothecin, reference compound]
A549 cells
  GI50: 99 ± 17 nM
[1]
  Induction of cellular TOP1cc: induce the formation of cellular TOP1cc in a dose-dependent manner

## CNCCn1c(=O)c2cc(OC)c(OC)cc2c2ccc3cc4c(cc3c21)OCO4 [Compound 12, 2,3-Dimethoxy-12-(2-(methylamino)ethyl)-[1,3]dioxolo[4’,5’:4,5]benzo[1,2-c]phenanthridin-13(12H)-one]
[2]
  tumor volume: significantly reduced the tumor volume in a dose-dependent manner
[3]
  tumor volume: significantly reduced the tumor volume in a dose-dependent manner
[1]; 25 μM
  Induction of cellular TOP1cc compared with CPT: higher ability to induce cellular TOP1cc at 25 μM than CPT
[1]
  Induction of cellular TOP1cc: induce the formation of cellular TOP1cc in a dose-dependent manner
γH2AX foci
  Induction of γH2AX foci (DNA damage): effectively induces γH2AX foci
HCT116 cells
  Induction of apoptosis: induce HCT116 cells apoptosis in a dose-dependent manner
Kunming male mice; 122.9 mg/kg single ip dose, 7 days
  mice survival: all mice survived
Kunming male mice; 153.6 mg/kg single ip dose, 7 days
  mice survival: four mice survived
Kunming male mice; 192 mg/kg single ip dose, 7 days
  mice survival: three mice survived
Kunming male mice; 240 mg/kg single ip dose, 7 days
  mice survival: two mice survived
Kunming male mice; 300 mg/kg single ip dose
  mice survival: All mice died within 5 days

From paper PMC8274952 (European journal of medicinal chemistry, 2019)
